Where two headings read alike, the source gives them in different places. Each block holds one compound with its values, some of them ahead of it.
Experiments:
[1] = target: T1, AKT1 (Homo sapiens, UniProt P31749); assay: AKT1 enzymatic assay (KinEASE-STK S3 HTRF kit); format: biochemical; conditions: 2 nM enzyme, 10 μM ATP, 2 μM S3-biotin
T1 construct: purchased Invitrogen P2999
Method: (§1) The following methods were used to determine the inhibitory effect of the compounds of the present disclosure on the kinase activity of AKT1/AKT2/AKT3 in vitro. The experimental methodology is briefly described as follows:
(§2) The enzyme activity of AKT1 (Invitrogen, P2999), AKT2 (Invitrogen, PV3184) and AKT3 (Invitrogen, PV3185) was determined using a KinEASE-STK S3 kit (Cisbio, 62ST3PEC). Test compounds were each first subjected to 3-fold gradient dilution with DMSO from 500 μM to obtain a total of 11 concentrations. The 5× buffer in the kit was diluted to 1×buffer, and DTT (Sigma, 43816-10ML) and MgCl2 were added to make the buffer contain 1 mM DTT and 5 mM MgCl2. Compounds were each subjected to 20-fold dilution with 1× buffer for later use. The enzyme solution was obtained by diluting the AKT1/AKT2/AKT3 kinase with 1× buffer. ATP (Invitrogen, PV3227) and S3-biotin in the kit were diluted with 1× buffer to obtain a substrate-ATP mixture solution for later use. 2 μL of the enzyme solution and 4 μL of the compound solution were added to each well of a 384-well plate (Corning, 4513), and the mixture was incubated at room temperature for 30 min, followed by addition of 4 μL of the ATP and S3-biotin mixture solution. The resulting mixture was incubated at room temperature for 90 min. AKT1 enzyme reaction conditions were a final concentration of 2 nM for enzyme, a final concentration of 10 μM for ATP, and a final concentration of 2 μM for S3-biotin. AKT2 enzyme reaction conditions were a final concentration of 5 nM for enzyme, a final concentration of 10 μM for ATP, and a final concentration of 2 μM for S3-biotin. AKT3 enzyme reaction conditions were a final concentration of 0.4 nM for enzyme, a final concentration of 45 μM for ATP, and a final concentration of 2 μM for S3-biotin. The detection solution was prepared by diluting the S3-cryptate and streptavidin-XL665 with the detection buffer in the kit. After incubation, 10 μL of the detection solution was added to each well, the final concentration of S3-cryptate was a concentration obtained by 200-fold dilution of the stock solution, and the final concentration of streptavidin-XL665 was 125 nM. The mixture was incubated at room temperature for 60 min, values of signals emitted at […] and 620 nm after excitation at 337 nm were measured by using an HTRF module of a multi-functional microplate detector (BMG Labtech, PHERAstar FS), and the reading ratio was multiplied by 10,000 to obtain a specific value. Dose-response curves were drawn according to the concentration of the compounds and the specific values by using Graphpad Prism software, and the IC50 values for the inhibitory activity of the compounds were calculated.

[2] = target: T2, AKT2 (Homo sapiens, UniProt P31751); assay: AKT2 enzymatic assay (KinEASE-STK S3 HTRF kit); format: biochemical; conditions: 5 nM enzyme, 10 μM ATP, 2 μM S3-biotin
T2 construct: purchased Invitrogen PV3184
Method: as §1, §2

[3] = target: T3, AKT3 (Homo sapiens, UniProt Q9Y243); assay: AKT3 enzymatic assay (KinEASE-STK S3 HTRF kit); format: biochemical; conditions: 0.4 nM enzyme, 45 μM ATP, 2 μM S3-biotin
T3 construct: purchased Invitrogen PV3185
Method: as §1, §2

[4] = Pharmacokinetic study in nude mice, intragastric administration; format: in vivo; conditions: female, mouse, po, Balb/c nude mice, i.g., plasma; for Vd/F: read-out: Apparent volume of distribution Vz/F; for AUC(0-t): read-out: Area under curve AUC0-t; for CL/F: read-out: Clearance CL/F; for half-life: read-out: Half-life T1/2 (converted); for Cmax: read-out: Plasma concentration Cmax; for MRT: read-out: Residence time MRT
Method: The drug concentration in the plasma of the test animals (Balb/c nude mice) at different time points after intragastric administration (i.g.) of the test compounds was determined by using an LC/MS/MS method. The pharmacokinetic performance of the compounds of the present disclosure in nude mice was studied and their pharmacokinetic profile was evaluated.
18 Balb/c nude mice, female, divided into 2 groups and purchased from Vital River Laboratory Animal Technology Co., Ltd.
A certain amount of compound was weighed out, 99.8% 0.5% methylcellulose was added into the compound, and then 0.2% Tween was added. The mixture was subjected to ultrasonic treatment to obtain a suspension, which was stirred for administration.
The nude mice were subjected to intragastric administration, the administration dose was 50 mg/kg or 100 mg/kg, and the administration volume was 0.2 mL/10 g.
The test compound was administered intragastrically to the nude mice, and 0.1 mL of blood was collected before administration and 0.25 h, 0.5 h, 1.0 h, 2.0 h, 4.0 h, 6.0 h, 8.0 h, 11.0 h and 24.0 h after administration. The blood was placed in an EDTA-K2 anticoagulation tube and centrifuged at 10,000 rpm for 1 min (4° C.), and plasma was separated out within 1 h and then stored at −20° C. for testing. The process from blood sampling to centrifugation was performed under an ice bath.
The content of the test compounds at different concentrations in the nude mice plasma after intragastric administration was determined: 20 μL of nude mouse plasma at each time point after administration was mixed with 50 μL of internal standard solution (camptothecin, 100 ng/mL) and 200 μL of acetonitrile, and the mixture was vortexed for 5 min and centrifuged for 10 min at 3700 rpm. 1 μL of supernatant of the plasma sample was taken for LC/MS/MS analysis.

[5] = Pharmacokinetic study in rats, administration by injection (i.v.); format: in vivo; conditions: both sexes, rat, iv, SD rats, 1 mg/kg, plasma; for Vd: read-out: Apparent volume of distribution Vz; for AUC(0-t): read-out: Area under curve AUC0-t; for clearance: read-out: Clearance CL; for half-life: read-out: Half-life T1/2 (converted); for MRT: read-out: Residence time MRT
Method: The drug concentration in the plasma of the test animals (SD rats) at different time points after injection (i.v.) of the test compounds was determined by using an LC/MS/MS method. The pharmacokinetic performance in rats of the compounds of present disclosure was studied and their pharmacokinetic profile was evaluated.
8 SD rats, half male and half female, divided into 2 groups, purchased from Vital River Laboratory Animal Technology Co., Ltd.
A certain amount of the compound was weighed out, and 5% of DMSO, 5% of Tween 80 and 90% of normal saline were added to obtain a colorless and clear solution.
The rats were subjected to administration by injection, the administration dose was 1 mg/kg, and the administration volume was 5 mL/kg.
The test compound was administered by injection to the rats, and 0.2 mL of blood was collected from the orbit before administration and 5 min, 0.25 h, 0.5 h, 1.0 h, 2.0 h, 4.0 h, 8.0 h, 11.0 h and 24.0 h after administration. The blood was placed in an EDTA-K2 anticoagulation tube and centrifuged at 10,000 rpm for 1 min (4° C.), and plasma was separated out within 1 h and then stored at −20° C. for testing. The process from blood sampling to centrifugation was performed under an ice bath.
The content of the test compounds at different concentrations in the rat plasma after administration by injection was determined: 25 μL of rat plasma at each time point after administration was mixed with 50 μL of internal standard solution (camptothecin, 100 ng/mL) and 200 μL of acetonitrile, and the mixture was vortexed for 5 min and centrifuged for 10 min at 3700 rpm. 3 μL of supernatant of the plasma sample was taken for LC/MS/MS analysis.

T1 sequence (P31749 whole entry): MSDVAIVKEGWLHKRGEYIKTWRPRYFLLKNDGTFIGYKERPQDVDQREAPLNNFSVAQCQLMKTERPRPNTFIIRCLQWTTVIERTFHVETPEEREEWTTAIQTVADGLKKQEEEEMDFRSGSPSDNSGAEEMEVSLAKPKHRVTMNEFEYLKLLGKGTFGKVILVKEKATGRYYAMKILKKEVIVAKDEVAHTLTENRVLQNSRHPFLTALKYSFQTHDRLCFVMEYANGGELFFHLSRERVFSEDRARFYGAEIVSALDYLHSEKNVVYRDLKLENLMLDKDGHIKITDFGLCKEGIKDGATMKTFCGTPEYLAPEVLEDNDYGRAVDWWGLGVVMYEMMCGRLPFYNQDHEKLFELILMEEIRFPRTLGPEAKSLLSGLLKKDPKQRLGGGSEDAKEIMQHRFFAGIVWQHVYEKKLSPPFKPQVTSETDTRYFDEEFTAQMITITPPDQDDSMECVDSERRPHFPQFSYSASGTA
T2 sequence (P31751 whole entry): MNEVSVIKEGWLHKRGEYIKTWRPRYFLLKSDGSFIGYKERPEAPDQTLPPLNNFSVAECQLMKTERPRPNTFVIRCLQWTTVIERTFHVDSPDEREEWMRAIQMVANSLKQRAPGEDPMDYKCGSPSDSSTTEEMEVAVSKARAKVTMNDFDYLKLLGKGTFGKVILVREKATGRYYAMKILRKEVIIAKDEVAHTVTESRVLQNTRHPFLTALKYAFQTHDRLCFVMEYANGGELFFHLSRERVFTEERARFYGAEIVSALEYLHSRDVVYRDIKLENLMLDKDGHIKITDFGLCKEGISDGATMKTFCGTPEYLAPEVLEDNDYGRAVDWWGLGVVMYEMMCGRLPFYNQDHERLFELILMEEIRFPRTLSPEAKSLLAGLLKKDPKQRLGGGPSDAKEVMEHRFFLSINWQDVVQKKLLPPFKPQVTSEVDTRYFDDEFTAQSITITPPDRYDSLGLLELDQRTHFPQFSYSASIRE
T3 sequence (Q9Y243 whole entry): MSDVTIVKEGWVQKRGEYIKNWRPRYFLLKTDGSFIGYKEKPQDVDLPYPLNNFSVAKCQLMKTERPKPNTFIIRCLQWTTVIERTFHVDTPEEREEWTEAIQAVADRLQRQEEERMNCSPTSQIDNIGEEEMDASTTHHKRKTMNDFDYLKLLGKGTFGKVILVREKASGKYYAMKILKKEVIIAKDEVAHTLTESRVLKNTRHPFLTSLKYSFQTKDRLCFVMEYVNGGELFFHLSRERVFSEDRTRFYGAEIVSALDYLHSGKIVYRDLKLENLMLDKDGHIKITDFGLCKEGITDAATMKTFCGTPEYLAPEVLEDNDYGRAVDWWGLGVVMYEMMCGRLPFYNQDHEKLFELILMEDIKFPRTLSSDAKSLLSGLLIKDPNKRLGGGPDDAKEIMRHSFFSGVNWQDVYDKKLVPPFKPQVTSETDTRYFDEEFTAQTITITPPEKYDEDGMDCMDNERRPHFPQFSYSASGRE

- IC50 [1]: 20 nM
- IC50 [2]: 64.9 nM
- IC50 [3]: 27.6 nM
Compound: CC(C)NC[C@@H](C(=O)N1[C@@H]2CC[C@H]1CN(c1ncnc3[nH]ccc13)C2)c1ccc(Cl)cc1 [Example 1, (S)-1-((1R,5S)-3-(7H-pyrrolo[2,3-d]pyrimidin-4-yl)-3,8-diazabicyclo[3.2.1]octan-8-yl)-2-(4-chlorophenyl)-3-(isopropylamino)propan-1-one]

Compound: CC(C)NC[C@@H](C(=O)N1C2CCC1CN(c1ncnc3c1C(C)(C)C(=O)N3)C2)c1ccc(Cl)cc1 [Example 2]
- Vd/F ([4]; 50 mg/kg): 8.03 L/kg
- AUC(0-t) ([4]; 50 mg/kg): 20200 ng·h/mL
- CL/F ([4]; 50 mg/kg): 41.2 mL/min/kg
- half-life ([4]; 50 mg/kg): 138 min
- Cmax ([4]; 50 mg/kg): 3000 ng/mL
- MRT ([4]; 50 mg/kg): 4.9 h
- Vd/F ([4]; 100 mg/kg): 16.2 L/kg
- AUC(0-t) ([4]; 100 mg/kg): 36000 ng·h/mL
- CL/F ([4]; 100 mg/kg): 45.4 mL/min/kg
- half-life ([4]; 100 mg/kg): 246 min
- Cmax ([4]; 100 mg/kg): 3500 ng/mL
- MRT ([4]; 100 mg/kg): 6.7 h
- Vd [5]: 13 L/kg
- AUC(0-t) [5]: 221 ng·h/mL
- clearance [5]: 75.4 mL/min/kg
- half-life [5]: 120 min
- MRT [5]: 2.6 h
- IC50 [1]: 60 nM
- IC50 [2]: 74.1 nM
- IC50 [3]: 2 nM

- IC50 [1]: 5.2 nM
- IC50 [2]: 3.9 nM
- IC50 [3]: 1.2 nM
Compound: Cc1c[nH]c2ncnc(N3C[C@H]4CC[C@@H](C3)N4C(=O)[C@H](CNC(C)C)c3ccc(Cl)cc3)c12 [Example 3, (S)-2-(4-chlorophenyl)-3-(isopropylamino)-1-((1R,5S)-3-(5-methyl-7H-pyrrolo[2,3-d]pyrimidin-4-yl)-3,8-diazabicyclo[3.2.1]octan-8-yl]propan-1-one]

Compound: CC(C)NC[C@@H](C(=O)N1[C@@H]2CC[C@H]1CN(c1ncnc3c1[C@H](C)C[C@H]3O)C2)c1ccc(Cl)cc1 [Example 4, (S)-2-(4-chlorophenyl)-1-((1R,5S)-3-((5R,7R)-7-hydroxy-5-methyl-6,7-dihydro-5H-cyclopenta[d]pyrimidin-4-yl)-3,8-diazabicyclo[3.2.1]octan-8-yl)-3-(isopropylamino)propan-1-one]
- Vd/F ([4]; 50 mg/kg): 8.71 L/kg
- AUC(0-t) ([4]; 50 mg/kg): 14300 ng·h/mL
- CL/F ([4]; 50 mg/kg): 57.5 mL/min/kg
- half-life ([4]; 50 mg/kg): 108 min
- Cmax ([4]; 50 mg/kg): 4130 ng/mL
- MRT ([4]; 50 mg/kg): 3 h
- Vd/F ([4]; 100 mg/kg): 13.2 L/kg
- AUC(0-t) ([4]; 100 mg/kg): 27500 ng·h/mL
- CL/F ([4]; 100 mg/kg): 60.5 mL/min/kg
- half-life ([4]; 100 mg/kg): 150 min
- Cmax ([4]; 100 mg/kg): 5500 ng/mL
- MRT ([4]; 100 mg/kg): 3.7 h
- Vd [5]: 16.3 L/kg
- AUC(0-t) [5]: 205 ng·h/mL
- clearance [5]: 82.9 mL/min/kg
- half-life [5]: 150 min
- MRT [5]: 2.2 h
- IC50 [1]: 38.6 nM
- IC50 [2]: 46.4 nM
- IC50 [3]: 55.6 nM

Compound: CC(C)NC[C@@H](C(=O)N1C2CCCC1CN(c1ncnc3[nH]ccc13)C2)c1ccc(Cl)cc1 [Example 5, (2S)-1-(3-(7H-pyrrolo[2,3-d]pyrimidin-4-yl)-3,9-diazabicyclo[3.3.1]nonan-9-yl)-2-(4-chlorophenyl)-3-(isopropylamino)propan-1-one]
- IC50 [1]: 68.1 nM
- IC50 [2]: 70.1 nM
- IC50 [3]: 112 nM

Compound: CC(C)NC[C@@H](C(=O)N1C2COCC1CN(c1ncnc3[nH]ccc13)C2)c1ccc(Cl)cc1 [Example 6, (2S)-1-(7-(7H-pyrrolo[2,3-d]pyrimidin-4-yl)-3-oxa-7,9-diazabicyclo[3.3.1]nonan-9-yl)-2-(4-chlorophenyl)-3-(isopropylamino)propan-1-one]
- IC50 [1]: 88.4 nM
- IC50 [2]: 141 nM
- IC50 [3]: 268 nM

Compound: CC(C)NC[C@@H](C(=O)N1CC2COCC(C1)N2c1ncnc2[nH]ccc12)c1ccc(Cl)cc1 [Example 7, (2S)-1-(9-(7H-pyrrolo[2,3-d]pyrimidin-4-yl)-3-oxa-7,9-diazabicyclo[3.3.1]nonan-7-yl)-2-(4-chlorophenyl)-3-(isopropylamino)-propan-1-one]
- IC50 [1]: 82 nM
- IC50 [2]: 270 nM
- IC50 [3]: 60 nM

- IC50 [1]: 56.2 nM
- IC50 [2]: 54 nM
- IC50 [3]: 66 nM
Compound: CC(C)NC[C@@H](C(=O)N1[C@@H]2CC[C@H]1CN(c1ncnc3c1[C@H](C)C[C@H]3F)C2)c1ccc(Cl)cc1 [Example 8, (S)-2-(4-chlorophenyl)-1-((1R,5S)-3-((5R,7R)-7-fluoro-5-methyl-6,7-dihydro-5H-cyclopenta[d]pyrimidin-4-yl)-3,8-diazabicyclo[3.2.1]octan-8-yl)-3-(isopropylamino)propan-1-one]

Compound: Cc1c[nH]c2nccc(N3C[C@H]4CC[C@@H](C3)N4C(=O)[C@H](CNC(C)C)c3ccc(Cl)cc3)c12 [Example 9, (S)-2-(4-chlorophenyl)-3-(isopropylamino)-1-((1R,5S)-3-(3-methyl-1H-pyrrolo[2,3-b]pyridin-4-yl)-3,8-diazabicyclo[3.2.1]octan-8-yl)propan-1-one]
- IC50 [1]: 19.6 nM
- IC50 [2]: 13.1 nM
- IC50 [3]: 6.3 nM

Source: patent publication US20230148417A1, “FUSED BICYCLIC DERIVATIVE, PREPARATION METHOD THEREFOR, AND PHARMACEUTICAL USE THEREOF” (Jiangsu Hengrui Pharmaceuticals Co., Ltd., priority 2020, published 2023)
